Patent US10322110B2, “Imidazole-based antimicrobial agents” (priority 2014, dated 2019)
In brackets after ≈: the same amount, converted by molar mass.

Columns and labels:
Type in all cases: cell-based
[1] = system: Staphylococcus aureus MRSA (COL); experiment: broth microdilution MIC assay, Staphylococcus aureus MRSA (COL); details: 24 h; for Antibacterial activity Staphylococcus aureus (MRSA): MIC100 class score, broth microdilution; for MIC: Staphylococcus aureus, MRSA, read-out: Antibacterial activity Staphylococcus aureus (MRSA)
[2] = system: Streptococcus pneumoniae (Chester, ATCC49619); experiment: broth microdilution MIC assay, Streptococcus pneumoniae; details: MIC100 class score, 24 h
[3] = system: Staphylococcus aureus MSSA (Newman); experiment: broth microdilution MIC assay, Staphylococcus aureus MSSA (Newman); details: 24 h; for MIC: Staphylococcus aureus, read-out: Antibacterial activity Staphylococcus aureus (MSSA)

SMILES	MIC [3] [µg/mL]	MIC [1] [µg/mL]	other results
CCCc1nc(-c2csc(-c3ccccc3C(F)(F)F)c2)[nH]c1C [Compound 113]			Antibacterial activity Staphylococcus aureus (MRSA) [1]: 3 (MIC100 of 3-10 μg/ml)
CCCc1nc(-c2sc(-c3ccccc3C(F)(F)F)c3c2OCCO3)[nH]c1C [Compound 114]			Antibacterial activity Staphylococcus aureus (MRSA) [1]: 3 (MIC100 of 3-10 μg/ml)
COc1cccc(-c2nc(-c3nc(-c4ccccc4)c(C)[nH]3)cs2)c1 [Compound 116]			Antibacterial activity Streptococcus pneumoniae [2]: 3 (MIC100 of 2-5 μg/ml)
Cc1[nH]c(-c2ccc(-c3cccc(F)c3)s2)nc1-c1ccccc1 [Compound 117]	20 to 50 (≈ 59.8 to 150 µM)		
Cc1nc(-c2ccc(-c3ccc(O)cc3F)o2)[nH]c1-c1ccc(O)cc1 [Compound 120]			Antibacterial activity Streptococcus pneumoniae [2]: 3 (MIC100 of 2-5 μg/ml); Antibacterial activity Staphylococcus aureus (MSSA) ([3]; MIC100 class score, broth microdilution): 2 (MIC100 of 11-201 μg/ml)
Fc1ccc(-c2ccc(-c3nc4ccccc4[nH]3)o2)cc1 [Compound 121]			Antibacterial activity Streptococcus pneumoniae [2]: inactive
Fc1ccc(-c2ccc(-c3nc4ccccc4[nH]3)o2)c(F)c1 [Compound 122]			Antibacterial activity Streptococcus pneumoniae [2]: inactive
Cc1nc(-c2ccc(-c3cccc4[nH]ccc34)o2)[nH]c1-c1ccccc1 [Compound 138]		11 to 201 (≈ 32.4 to 592 µM)	
Cc1nc(-c2ccc(-c3ccc(O)cc3C(F)(F)F)o2)[nH]c1-c1ccccc1 [Compound 139]	1 to 3 (≈ 2.6 to 7.81 µM)	1 to 3 (≈ 2.6 to 7.81 µM)	
Cc1nc(-c2ccc(-c3cc4ccccc4o3)o2)[nH]c1-c1ccccc1 [Compound 140]		11 to 201 (≈ 32.3 to 591 µM)	
Cc1nc(-c2ccc(-c3ccc(N4CCN(C)CC4)cc3)o2)[nH]c1-c1ccccc1 [Compound 141]		20 to 50 (≈ 50.2 to 125 µM)	
Cc1nc(-c2ccc(-c3cccc(C(F)(F)F)c3)o2)[nH]c1-c1ccccc1 [Compound 142]	1 to 3 (≈ 2.71 to 8.14 µM)	1 to 3 (≈ 2.71 to 8.14 µM)	
Cc1nc(-c2ccc(-c3ccc4[nH]ccc4c3)o2)[nH]c1-c1ccccc1 [Compound 144]	3 to 10 (≈ 8.84 to 29.5 µM)	3 to 10 (≈ 8.84 to 29.5 µM)	
Cc1nc(-c2ccc(-c3cccc(O)c3)o2)[nH]c1-c1ccccc1 [Compound 145]	11 to 201 (≈ 34.8 to 635 µM)	20 to 50 (≈ 63.2 to 158 µM)	
Cc1nc(-c2ccc(-c3cccc(F)c3)o2)[nH]c1-c1ccccc1 [Compound 146]	3 to 10 (≈ 9.42 to 31.4 µM)	3 to 10 (≈ 9.42 to 31.4 µM)	
Cc1nc(-c2ccc(-c3ccc(F)cc3F)o2)[nH]c1-c1ccccc1 [Compound 147]	1 to 3 (≈ 2.97 to 8.92 µM)	1 to 3 (≈ 2.97 to 8.92 µM)	
Cc1nc(-c2ccc(-c3ccc(F)cc3)o2)[nH]c1-c1ccccc1 [Compound 148]	3 to 10 (≈ 9.42 to 31.4 µM)	3 to 10 (≈ 9.42 to 31.4 µM)	

SMILES	MIC [3] [µg/mL]	MIC [1] [µg/mL]	other results
Cc1nc(-c2ccc(-c3ccccc3O)o2)[nH]c1-c1ccccc1 [Compound 149]	11 to 201 (≈ 34.8 to 635 µM)	20 to 50 (≈ 63.2 to 158 µM)	
Cc1nc(-c2ccc(-c3ccc(O)cc3)o2)[nH]c1-c1ccccc1 [Compound 150]	11 to 201 (≈ 34.8 to 635 µM)	11 to 201 (≈ 34.8 to 635 µM)	
Cc1nc(-c2ccc(-c3ccc4cc[nH]c4c3)o2)[nH]c1-c1ccccc1 [Compound 152]	3 to 10 (≈ 8.84 to 29.5 µM)	3 to 10 (≈ 8.84 to 29.5 µM)	
Cc1nc(-c2ccc(-c3ccc(F)c(F)c3)o2)[nH]c1-c1ccccc1 [Compound 153]	3 to 10 (≈ 8.92 to 29.7 µM)	3 to 10 (≈ 8.92 to 29.7 µM)	
Cc1nc(-c2ccc(-c3ccc4cc(O)ccc4c3)o2)[nH]c1-c1ccccc1 [Compound 154]	11 to 201 (≈ 30 to 549 µM)	11 to 201 (≈ 30 to 549 µM)	
Cc1nc(-c2ccc(-c3ccc(O)c(C(F)(F)F)c3)o2)[nH]c1-c1ccccc1 [Compound 155]	3 to 10 (≈ 7.81 to 26 µM)	11 to 201 (≈ 28.6 to 523 µM)	
Cc1nc(-c2ccc(-c3ccc(O)c(Cl)c3)o2)[nH]c1-c1ccccc1 [Compound 157]	3 to 10 (≈ 8.55 to 28.5 µM)	11 to 201 (≈ 31.4 to 573 µM)	
Cc1nc(-c2ccc(-c3ccc(O)cc3Cl)o2)[nH]c1-c1ccccc1 [Compound 158]	1 to 3 (≈ 2.85 to 8.55 µM)	1 to 3 (≈ 2.85 to 8.55 µM)	
Cc1nc(-c2ccc(-c3ccc4occc4c3)o2)[nH]c1-c1ccccc1 [Compound 159]	3 to 10 (≈ 8.81 to 29.4 µM)	20 to 50 (≈ 58.8 to 147 µM)	
Cc1nc(-c2ccc(-c3cc4ccccc4[nH]3)o2)[nH]c1-c1ccccc1 [Compound 160]	3 to 10 (≈ 8.84 to 29.5 µM)	11 to 201 (≈ 32.4 to 592 µM)	
Cc1nc(-c2ccc(-c3cccc4cc[nH]c34)o2)[nH]c1-c1ccccc1 [Compound 161]	3 to 10 (≈ 8.84 to 29.5 µM)	1 to 3 (≈ 2.95 to 8.84 µM)	
Cc1[nH]c(-c2ccc(-c3ccccc3F)o2)nc1-c1ccccc1 [Compound 162]	3 to 10 (≈ 9.42 to 31.4 µM)	3 to 10 (≈ 9.42 to 31.4 µM)	
Cc1cc(F)ccc1-c1ccc(-c2nc(-c3ccccc3)c(C)[nH]2)o1 [Compound 164]	3 to 10 (≈ 9.03 to 30.1 µM)		
Cc1[nH]c(-c2cnn(-c3ccc(F)cc3)c2)nc1-c1ccccc1 [Compound 166]	20 to 50 (≈ 62.8 to 157 µM)	20 to 50 (≈ 62.8 to 157 µM)	
Cc1[nH]c(-c2cnn(-c3ccccc3)c2)nc1-c1ccccc1 [Compound 167]		20 to 50 (≈ 66.6 to 166 µM)	
Cc1nc(-c2ccc(-c3ccc(O)cc3F)o2)[nH]c1-c1ccccc1 [Compound 168]	3 to 10 (≈ 8.97 to 29.9 µM)	3 to 10 (≈ 8.97 to 29.9 µM)	
